Assay results from patent US12440571B2, “Immune agonists” (SHENZHEN UNIVERSITY, priority 2020, dated 2025).
pEC50, pIC50: −log10 of the molar value. Read-outs that look alike come from different tables or passages of the source.

Key:
Type in all cases: cell-based
[1] = test system: murine leukemia WEHI-3 cells; assay: CCK8 growth inhibition, WEHI-3; details: Mus musculus, CCK8 method, read-out: IC50 of inhibitory activity on tumor cell growth, WEHI-3
[2] = test system: human leukemia HL-60 cells; assay: CCK8 growth inhibition, HL60; details: read-out: IC50 of inhibitory activity on tumor cell growth, HL60
[3] = test system: human lymphoma Daudi B cells; assay: CCK8 growth inhibition, Daudi B; details: CCK8 method, read-out: IC50 of inhibitory activity on tumor cell growth, Daudi B
[4] = test system: murine spleen lymphocytes; assay: Cytokine stimulation of murine spleen lymphocytes, ELISA; details: mouse immune cells (spleen lymphocytes), 24 hrs, ELISA; for pEC50: Lymphocyte
Procedure: The stimulating effect of a series of GY compounds or drugs on murine spleen lymphocytes was detected by ELISA.
6-week-old Balb/c mice were sacrificed by cervical dislocation, spleens were taken under aseptic conditions. A 1 mL sterile syringe and a 200 mesh cell strainer were adopted to quickly grind and disperse the spleen into individual cells in 4 mL of a murine lymphocyte separation solution (Dakko's, 7211011). A resulting cell homogenate was transferred to a 15 mL centrifuge tube, then 1 mL of a RPMI 1640 medium (Hyclone, SH30809.01) was slowly added. Spleen lymphocytes were separated by a density gradient centrifugation method (800×g, 30 min), washed, red blood cells therein were lysed, such that a dispersed spleen lymphocyte suspension was obtained. Cells were counted by a hemocytometer, to calculate the cell concentration. A RPMI 1640 complete medium was adopted to adjust the cell suspension to a concentration of 1×10^6/ml/well, and the cells were then plated on a 24-well cell culture plate (Corning, 3524).
Murine spleen lymphocytes were stimulated according to the gradient concentrations of the series of GY compounds or drugs, and incubated in a 37° C., 5% carbon dioxide incubator for 24 hrs.
• (1) Coating: a Capture antibody (primary antibody, purchased from Invitrogen) was diluted with a 1×Coating Buffer (coating buffer, purchased from Invitrogen) to a recommended concentration, and 100 μL of a resulting diluted solution was added to each well of a 96-well microtiter plate, the plate was sealed with a sealing film at 4° C. overnight. • (2) Washing: a liquid in each well was discarded, then 300 μL of a PBST working solution was added to each well and kept for 1 min, thereafter, the liquid therein was discarded. The washing process was repeated 3 times. • (3) Blocking: 200 μL of a blocking solution was added to each well. The plate was sealed with a sealing film, and placed on a shaker and incubated at room temperature for 1 hr, then washed and patted to be dry. • (4) Sample incubation: a sample was collected and centrifuged to collect a supernatant. Standards, samples, negative controls, and blank controls were provided in the 96-well microtiter plate, and each concentration or sample were provided with 2 replicates. 100 μL of a standard or sample was added to each well, thereafter, the plate was sealed with a sealing film, incubated on a shaker at room temperature for 1 hr or overnight at 4° C., then washed and pated to be dry. • (5) Secondary antibody incubation: the detection antibody (secondary antibody, purchased from Invitrogen) was diluted to a recommended concentration with a dilution buffer, 100 μL of a secondary antibody was added to each well. After being sealed with a sealing film, the plate was incubated on a shaker at room temperature for 1 hr, then washed and patted to be dry. • (6) Avidin-HRP incubation: Avidin-HRP (horseradish peroxidase marker, purchased from Invitrogen) was diluted to the recommended concentration with a dilution buffer, 100 μL of Avidin-HRP was added to each well. After being sealed with a sealing film, the plate was placed on a shaker and incubated at room temperature for 30 mins, washed 5-7 times by the process of step 2), and patted to be dry. • (7) TMB color development: 100 μL of a TMB color development solution (purchased from Invitrogen) was added to each well, for carrying out reaction for 15 mins at room temperature in the dark. • (8) Stopping reaction: 50 μL of 1M H2SO4 solution was added to each well. • (9) Reading an absorbance value by a microplate reader: the OD value at 450 nm wavelength was read. A standard curve and a parameter nonlinear regression equation were drawn, and a sample concentration was calculated according to the obtained formula.

TLR7 = molecular target: T1, TLR7 (Homo sapiens, UniProt Q9NYK1); assay: Detection of TLR7 activation (HEK-Blue Detection), SEAP reporter; details: HEK-Blue hTLR7 cells, 6-16 hrs, absorbance 650 nm; read-out: TLR7(EC50/μM)
T1 construct: host or cells: HEK-Blue hTLR7 cells (HEK293-derived SEAP reporter line)
T1 sequence (Q9NYK1 27-1049): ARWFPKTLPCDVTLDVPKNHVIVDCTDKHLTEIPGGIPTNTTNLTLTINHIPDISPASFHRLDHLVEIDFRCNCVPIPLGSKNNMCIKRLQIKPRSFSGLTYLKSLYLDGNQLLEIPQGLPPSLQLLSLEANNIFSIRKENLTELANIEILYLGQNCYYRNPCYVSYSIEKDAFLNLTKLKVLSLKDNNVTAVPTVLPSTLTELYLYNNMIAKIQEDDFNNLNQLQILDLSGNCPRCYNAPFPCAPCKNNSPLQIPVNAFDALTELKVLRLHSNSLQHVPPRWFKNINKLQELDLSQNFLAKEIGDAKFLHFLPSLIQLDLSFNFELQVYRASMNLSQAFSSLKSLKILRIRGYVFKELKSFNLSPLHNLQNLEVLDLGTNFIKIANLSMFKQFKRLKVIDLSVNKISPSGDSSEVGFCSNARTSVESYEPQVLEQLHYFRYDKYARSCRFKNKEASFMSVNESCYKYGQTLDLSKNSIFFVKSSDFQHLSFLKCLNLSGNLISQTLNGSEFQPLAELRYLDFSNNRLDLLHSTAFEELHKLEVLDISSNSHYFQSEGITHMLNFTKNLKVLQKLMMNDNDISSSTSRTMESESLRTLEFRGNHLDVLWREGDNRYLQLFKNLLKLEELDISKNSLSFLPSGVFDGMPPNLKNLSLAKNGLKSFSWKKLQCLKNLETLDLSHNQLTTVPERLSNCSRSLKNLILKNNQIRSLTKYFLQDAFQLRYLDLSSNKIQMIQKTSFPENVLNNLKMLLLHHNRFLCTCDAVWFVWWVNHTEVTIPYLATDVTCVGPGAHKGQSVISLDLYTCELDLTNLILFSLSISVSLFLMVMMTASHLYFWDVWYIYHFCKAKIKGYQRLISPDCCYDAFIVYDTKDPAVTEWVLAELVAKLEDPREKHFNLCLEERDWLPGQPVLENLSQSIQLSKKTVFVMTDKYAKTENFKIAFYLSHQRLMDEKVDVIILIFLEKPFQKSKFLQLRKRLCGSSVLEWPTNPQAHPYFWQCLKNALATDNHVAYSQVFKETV
Procedure: HEK-Blue™hTLR7 cells (purchased from InvivoGen) in a logarithmic growth phase were taken, with a growth medium (Gibco, C11995500BT, Invivo Gen, ant-nr) discarded. The cells were gently rinsed twice by an appropriate amount of 37° C. PBS (Hyclone, SH30256.01), a rinsed PBS was discarded. Thereafter, the cells were added with 2-5 mL of 37° C. PBS, incubated for 1 to 2 minutes, and then scraped by a cell scraper and gently pipetted to be dispersed into a single cell suspension. A hemocytometer was adopted to count the cells and a cell concentration was calculated. After that, a HEK-Blue™ Detection solution (purchased from Invivo Gen) was adopted to adjust the cell concentration of the cell suspension to 2.5×10^4/180 μL per well for cell plating on a 96-well cell culture plate. The HEK-Blue™hTLR7 cells were stimulated according to the designed series of GY compound or drug concentrations (0.01 μM, 0.1 μM, 1 μM, 5 μM, 15 μM, and 30 μM), with 3 replicate wells for each concentration, and were incubated at 37° C., 5% carbon dioxide for 6-16 hrs. After the incubation, the absorbance value was read at 650 nm with a full-wavelength microplate reader (BioTek-Epoch), as listed in Table 2.
Relative induction=(average OD value of experimental group−average OD value of negative control group)/average OD value of negative control group.
Specific details for the above method may be referred to https: • //www.invivogen.com/hek-blue-htlr7; https://www.invivogen.com/sites/default/files/invivogen/products/files/hek_blue_htlr7_tds.pdf.

[5] = test system: human lymphoma Raji cells; assay: CCK8 growth inhibition, Raji; details: CCK8 method, read-out: IC50 of inhibitory activity on tumor cell growth, Raji
A549 = assay: CCK8 growth inhibition, A549; details: Homo sapiens, CCK8 method, read-out: IC50 of inhibitory activity on tumor cell growth, A549
[6] = test system: Murine breast cancer 4T1 cells; assay: CCK8 growth inhibition, 4T1; details: Mus musculus, CCK8 method, 24 hrs (or 36, 72 hrs), read-out: IC50 of inhibitory activity on tumor cell growth, 4T1
Procedure: Murine breast cancer 4T1 cells (Kailian Biotech, KG338) in a logarithmic growth phase were selected and washed with PBS, digested with 0.25% trypsin (including EDTA), stopped digestion with a DMEM complete medium, then centrifuged, and resuspended to form a suspension of 4T1 single cells. Cells were counted using a hemocytometer and a cell concentration was calculated. A DMEM complete medium was used to adjust the cell suspension to a target concentration, and thereafter, the cells were plated on a 96-well cell culture plate according to 4×10^3/100 μL per well. After adherering to the wall, the 4T1 cells were stimulated according to the designed concentration gradients of the series of GY compounds or drugs, with each concentration being provided with 3 replicate holes. The 96-well cell culture plate with 4T1 cells seeded and dosing was placed in the cell incubator, and incubated at 37° C., 5% carbon dioxide for 24 hrs (or 36, 72 hrs). After the incubation time was over, 10 μL of CCK8 reagent was added to each well and incubated for 1-2 hrs at 37° C. A full-wavelength microplate reader was adopted to test an OD value at 450 nm wavelength.
CCK8 calculation formula is as follows: • Cell survival rate (100%)=[…]/(Ac−Ab)×100% • As: Absorbance of wells containing cells, CCK8 solution, and drug solution • Ac: Absorbance of wells containing cells and CCK8 solution, and no drug solution • Ab: Absorbance of wells containing CCK8 solution, no cells, and no drug solution
Cell growth inhibition rate (%)=1−((OD value of experimental group−OD value of blank group)/(OD value of control group−OD value of blank group)×100%).

MB231 = assay: CCK8 growth inhibition, MB231; details: CCK8 method; read-out: IC50 of inhibitory activity on tumor cell growth, MB231
HEK293T cells = assay: CCK8 growth inhibition, HEK-293T; details: Homo sapiens, CCK8 method, read-out: IC50 of inhibitory activity on cell growth, HEK-293T
[7] = test system: murine colon cancer CT-26 cells; assay: CCK8 growth inhibition, CT26; details: Mus musculus, CCK8 method, read-out: IC50 of inhibitory activity on tumor cell growth, CT26
[8] = test system: human leukemia K562 cells; assay: CCK8 growth inhibition, K562; details: CCK8 method, read-out: IC50 of inhibitory activity on tumor cell growth, K562
black melanoma B16 cells = assay: CCK8 growth inhibition, B16; details: Mus musculus, CCK8 method, read-out: IC50 of inhibitory activity on tumor cell growth, B16
[9] = read-out: TNF-alpha EC50 of cytokine stimulating activity
[10] = Homo sapiens, HL-60, CCK8 method

| pIC50 [1] | pEC50 [4, 9] | IFN-gamma EC50 of cytokine stimulating activity [4] | EC50 (TLR7) | pIC50 (A549) | pIC50 [2, 10] | pIC50 [6] | Structure (SMILES) | also measured |
| --- | --- | --- | --- | --- | --- | --- | --- | --- |
| 4.83 | 5.67 | No fit | 5.42 µM | – | – | – | C=C(CC(=O)NCCOCCOCCOCCn1cc(Cn2c(O)nc3c(N)nc(OCCCC)nc32)nn1)C(=O)N1CCC(C2CCNc3c(C(N)=O)c(-c4ccc(Oc5ccccc5)cc4)nn32)CC1 (single isomer, unassigned) [GY132] | pIC50 ([2]; CCK8 method): 5.29; pIC50 [3]: 5.27; IL-6 EC50 of cytokine stimulating activity [4]: No fit; pIC50 [5]: 5.69 |
| 4.32 | – | – | – | – | – | – | CCCCOc1nc(N)c2nc(O)n(Cc3cn(CCOCCOCCOCC(=O)N4CCN(C/C=C/C(=O)N5CCCC(n6nc(-c7ccc(Oc8ccccc8)cc7)c7c(N)ncnc76)C5)CC4)nn3)c2n1 (stereo not shown) [GY138] | – |
| 4.65 | – | – | – | – | – | – | C=C(CC(=O)N1CCC(C2CCN=C3C(C(N)=O)=C(c4ccc(Oc5ccccc5)cc4)NN32)CC1)C(=O)NCCOCCOCCOCCn1cc(Cn2c(O)nc3c(N)nc(OCCCC)nc32)nn1 (stereo not shown) [GY150] | – |

More lines, now with the values behind:

| Structure (SMILES) | pIC50 [1] | pEC50 [4, 9] | IFN-gamma EC50 of cytokine stimulating activity [4] | EC50 (TLR7) | pIC50 (A549) | pIC50 [2, 10] | pIC50 [6] | also measured |
| --- | --- | --- | --- | --- | --- | --- | --- | --- |
| CCCCOc1nc(N)c2nc(O)n(Cc3cn(CCOCCOCCOCC(=O)Nc4cc(Nc5nccc(-c6cn(C)c7ccccc67)n5)c(OC)cc4N(C)CCN(C)C)nn3)c2n1 [GY104] | – | 4.46 | No fit | – | 4.77 | – | – | pEC50 ([4]; read-out: IL-6 EC50 of cytokine stimulating activity): 4.56 |
| CCCCOc1nc(N)c2nc(O)n(Cc3cn(CCOCCOCCOCCN4CCN(CCCNC(=O)CC5N=C(c6ccc(Cl)cc6)c6c(sc(C)c6C)-n6c(C)nnc65)CC4)nn3)c2n1 (stereo not shown) [GY118] | – | – | – | – | 4.78 | 4.82 | 4.83 | pIC50 (MB231): 5.24 |
| C=C(CC(=O)NCCOCCOCCOCCn1cc(Cn2c(O)nc3c(N)nc(OCCCC)nc32)nn1)C(=O)N1CCC[C@@H](n2nc(-c3ccc(Oc4ccccc4)cc3)c3c(N)ncnc32)C1 [GY131] | 5.13 | – | – | 4.97 µM | – | 4.04 | 5.54 | pIC50 (HEK293T cells): 4.60; pIC50 ([3]; Homo sapiens, Daudi): 4.85; pIC50 [7]: 3.78; pIC50 [8]: 4.04; pIC50 (black melanoma B16 cells): 4.39; pIC50 ([5]; Homo sapiens, Raji): 4.98 |
